Laboratory results: US20080009418A1, “Selective Inhibitors” (Alchemia LTD., priority 2004, published 2008)

What was measured:
[1] = molecular target: T1, Human neuropeptide Y (NPY-Y1) (Homo sapiens, UniProt P25929); experiment: Radioligand binding, human neuropeptide Y NPY-Y1 membranes, FlashPlate, [125I]-PYY; conditions: compound at 10 μM, [125I]-PYY; for A9: inhibition of radioligand binding: human NPY-Y1 membranes
T1 construct: purchased Perkin Elmer Biosignal
T1 sequence (P25929 1-384): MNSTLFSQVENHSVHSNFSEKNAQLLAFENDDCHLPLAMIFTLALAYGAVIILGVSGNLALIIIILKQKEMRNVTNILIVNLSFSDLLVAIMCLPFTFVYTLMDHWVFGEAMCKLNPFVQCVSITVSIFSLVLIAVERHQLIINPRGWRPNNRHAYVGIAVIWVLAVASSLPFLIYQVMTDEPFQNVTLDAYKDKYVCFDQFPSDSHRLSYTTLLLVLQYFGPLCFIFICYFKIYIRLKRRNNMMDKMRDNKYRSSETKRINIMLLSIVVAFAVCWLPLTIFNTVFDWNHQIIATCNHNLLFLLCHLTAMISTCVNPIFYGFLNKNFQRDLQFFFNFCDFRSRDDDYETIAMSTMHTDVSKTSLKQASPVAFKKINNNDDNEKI
In short: (§1)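 Cloned human receptor membranes were coated onto FlashPlate wells and incubated with radioligand and compound (added from a 0.5 mM DMSO daughter plate) for 1 hour at room temperature in the dark. Scintillation counting gave percent inhibition, with DMSO defining total and reference ligand defining non-specific binding.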

Human δ-opioid (DOP) = molecular target: T2, Human δ-opioid (DOP) (Homo sapiens, UniProt P41143); experiment: Radioligand binding, human δ-opioid (DOP) membranes, FlashPlate, [3H]-Bremazocine; conditions: compound at 10 μM, [3H]-Bremazocine; for A1: inhibition of radioligand binding: human DOP membranes
T2 construct: purchased Perkin Elmer Biosignal
T2 sequence (P41143 whole entry): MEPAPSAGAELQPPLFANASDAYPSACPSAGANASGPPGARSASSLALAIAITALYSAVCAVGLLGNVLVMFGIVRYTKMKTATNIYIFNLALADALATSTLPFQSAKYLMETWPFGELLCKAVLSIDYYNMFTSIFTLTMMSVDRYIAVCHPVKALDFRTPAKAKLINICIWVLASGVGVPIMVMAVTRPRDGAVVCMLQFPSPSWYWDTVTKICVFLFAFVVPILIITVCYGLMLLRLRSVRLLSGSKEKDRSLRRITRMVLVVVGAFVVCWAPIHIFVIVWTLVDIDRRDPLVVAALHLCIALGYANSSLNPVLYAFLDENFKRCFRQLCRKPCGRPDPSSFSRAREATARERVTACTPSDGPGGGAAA
In short: as §1

Human melanocortin (MC5) = molecular target: T3, Human melanocortin (MC5) (Homo sapiens, UniProt P33032); experiment: Radioligand binding, human melanocortin MC5 membranes, FlashPlate, [125I]-NDP-αMSH; conditions: compound at 10 μM, [125I]-NDP-αMSH; for A5: inhibition of radioligand binding: human MC5 membranes
T3 construct: purchased Perkin Elmer Biosignal
T3 sequence (P33032 whole entry): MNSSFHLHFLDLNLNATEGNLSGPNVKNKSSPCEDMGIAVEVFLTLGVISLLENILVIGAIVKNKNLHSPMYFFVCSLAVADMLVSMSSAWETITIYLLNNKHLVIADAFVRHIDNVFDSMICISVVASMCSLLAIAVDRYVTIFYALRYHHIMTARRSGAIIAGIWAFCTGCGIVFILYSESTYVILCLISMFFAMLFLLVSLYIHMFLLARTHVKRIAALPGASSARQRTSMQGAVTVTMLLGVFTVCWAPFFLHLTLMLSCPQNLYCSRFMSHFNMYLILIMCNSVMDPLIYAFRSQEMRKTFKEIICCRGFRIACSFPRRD
In short: as §1

Human κ-Opioid (KOP) = molecular target: T4, Human κ-Opioid (KOP) (Homo sapiens, UniProt P41145); experiment: Radioligand binding, human κ-opioid (KOP) membranes, filtration, [3H]-Diprenorphine; conditions: compound at 10 μM, [3H]-Diprenorphine; for A2: inhibition of radioligand binding: human KOP membranes
T4 construct: purchased Perkin Elmer Biosignal
T4 sequence (P41145 whole entry): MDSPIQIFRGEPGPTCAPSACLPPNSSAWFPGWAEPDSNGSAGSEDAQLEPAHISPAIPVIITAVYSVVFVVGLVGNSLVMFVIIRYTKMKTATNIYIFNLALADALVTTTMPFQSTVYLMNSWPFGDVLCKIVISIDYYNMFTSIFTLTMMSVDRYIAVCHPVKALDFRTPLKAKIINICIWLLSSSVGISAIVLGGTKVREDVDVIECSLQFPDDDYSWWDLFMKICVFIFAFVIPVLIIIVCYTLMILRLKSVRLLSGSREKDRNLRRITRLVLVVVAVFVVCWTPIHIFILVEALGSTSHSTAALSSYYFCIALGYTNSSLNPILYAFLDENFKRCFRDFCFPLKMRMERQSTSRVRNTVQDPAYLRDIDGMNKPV
In short: (§2)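 Membranes from cloned human receptors were incubated with compound and radioligand for 1 hour at room temperature. Bound ligand was collected on 0.3% PEI-soaked filters, washed with cold 50 mM Tris-HCl pH 7.4, and counted by scintillation. Percent inhibition was computed against DMSO totals and reference-ligand nonspecific wells.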

Human μ-opioid (MOP) = molecular target: T5, Human μ-opioid (MOP) (Homo sapiens, UniProt P35372); experiment: Radioligand binding, human μ-opioid (MOP) membranes, FlashPlate, [3H]-Naloxone; conditions: compound at 10 μM, [3H]-Naloxone; for A7: inhibition of radioligand binding: human MOP membranes
T5 construct: purchased Perkin Elmer Biosignal
T5 sequence (P35372 whole entry): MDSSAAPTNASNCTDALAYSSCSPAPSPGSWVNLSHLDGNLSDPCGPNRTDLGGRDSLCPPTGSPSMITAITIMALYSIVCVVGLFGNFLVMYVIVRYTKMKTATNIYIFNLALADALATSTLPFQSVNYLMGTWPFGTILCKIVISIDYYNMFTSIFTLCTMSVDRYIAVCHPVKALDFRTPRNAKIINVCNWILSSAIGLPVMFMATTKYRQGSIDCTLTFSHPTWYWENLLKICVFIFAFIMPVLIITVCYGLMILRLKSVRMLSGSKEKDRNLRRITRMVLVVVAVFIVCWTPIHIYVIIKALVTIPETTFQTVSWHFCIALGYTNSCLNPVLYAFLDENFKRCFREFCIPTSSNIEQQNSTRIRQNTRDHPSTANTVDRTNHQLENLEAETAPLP
In short: as §1

Human neurokinin (NK1) = molecular target: T6, Human neurokinin (NK1) (Homo sapiens, UniProt P25103); experiment: Radioligand binding, human neurokinin NK1 membranes, filtration, [125I]-Substance P; conditions: compound at 10 μM, [125I]-Substance P; for A8: inhibition of radioligand binding: human NK1 membranes
T6 construct: purchased Perkin Elmer Biosignal
T6 sequence (P25103 whole entry): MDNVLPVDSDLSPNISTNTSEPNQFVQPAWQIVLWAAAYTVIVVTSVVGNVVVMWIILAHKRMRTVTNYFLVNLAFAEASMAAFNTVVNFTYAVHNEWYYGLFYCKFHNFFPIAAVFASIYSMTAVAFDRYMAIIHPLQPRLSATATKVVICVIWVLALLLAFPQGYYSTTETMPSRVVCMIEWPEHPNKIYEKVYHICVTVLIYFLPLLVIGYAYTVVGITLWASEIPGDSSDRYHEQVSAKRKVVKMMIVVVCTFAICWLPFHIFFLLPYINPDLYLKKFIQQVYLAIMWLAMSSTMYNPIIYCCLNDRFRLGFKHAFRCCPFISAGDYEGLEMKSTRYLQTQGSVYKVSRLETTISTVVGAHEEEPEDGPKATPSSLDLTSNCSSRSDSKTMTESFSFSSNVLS
In short: as §2

Human Melanocortin (MC4) = molecular target: T7, Human Melanocortin (MC4) (Homo sapiens, UniProt P32245); experiment: Radioligand binding, human melanocortin MC4 membranes, FlashPlate, [125I]-NDP-αMSH; conditions: compound at 10 μM, [125I]-NDP-αMSH; for A4: inhibition of radioligand binding: human MC4 membranes
T7 construct: purchased Perkin Elmer Biosignal
T7 sequence (P32245 whole entry): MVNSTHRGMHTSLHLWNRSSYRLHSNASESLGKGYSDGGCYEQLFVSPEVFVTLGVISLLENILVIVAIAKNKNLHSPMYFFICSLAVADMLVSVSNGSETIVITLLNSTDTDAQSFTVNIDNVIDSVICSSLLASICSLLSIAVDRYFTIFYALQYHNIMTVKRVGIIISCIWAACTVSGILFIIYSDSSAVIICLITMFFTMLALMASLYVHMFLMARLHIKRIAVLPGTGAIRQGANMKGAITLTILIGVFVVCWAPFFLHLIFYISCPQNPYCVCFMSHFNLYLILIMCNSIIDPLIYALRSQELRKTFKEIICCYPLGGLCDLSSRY
In short: as §1

Human opioid (ORL1) = molecular target: T8, Human opioid (ORL1) (Homo sapiens, UniProt P41146); experiment: Radioligand binding, human opioid ORL1 membranes, FlashPlate, [125I]-Nociceptin; conditions: compound at 10 μM, [125I]-Nociceptin; for A10: inhibition of radioligand binding: human ORL1 membranes
T8 construct: purchased Perkin Elmer Biosignal
T8 sequence (P41146 whole entry): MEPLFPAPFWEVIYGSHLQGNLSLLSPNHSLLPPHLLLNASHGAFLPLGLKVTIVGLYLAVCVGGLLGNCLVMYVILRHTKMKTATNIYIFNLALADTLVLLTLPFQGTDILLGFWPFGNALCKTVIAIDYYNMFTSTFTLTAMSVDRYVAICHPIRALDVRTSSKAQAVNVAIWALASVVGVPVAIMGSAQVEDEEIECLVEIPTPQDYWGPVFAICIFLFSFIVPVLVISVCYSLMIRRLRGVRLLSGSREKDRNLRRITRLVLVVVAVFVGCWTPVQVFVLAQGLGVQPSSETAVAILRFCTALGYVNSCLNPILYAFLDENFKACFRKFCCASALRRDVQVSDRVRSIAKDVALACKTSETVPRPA
In short: as §1

[2] = molecular target: T9, Human melanin-concentrating hormone (MCH1) (Homo sapiens, UniProt Q99705); experiment: Radioligand binding, human melanin-concentrating hormone MCH1 membranes, FlashPlate, [125I]-S36057; conditions: compound at 10 μM; for A6: inhibition of radioligand binding: [125I]-S36057, human MCH1 membranes
T9 construct: purchased Perkin Elmer Biosignal
T9 sequence (Q99705 whole entry): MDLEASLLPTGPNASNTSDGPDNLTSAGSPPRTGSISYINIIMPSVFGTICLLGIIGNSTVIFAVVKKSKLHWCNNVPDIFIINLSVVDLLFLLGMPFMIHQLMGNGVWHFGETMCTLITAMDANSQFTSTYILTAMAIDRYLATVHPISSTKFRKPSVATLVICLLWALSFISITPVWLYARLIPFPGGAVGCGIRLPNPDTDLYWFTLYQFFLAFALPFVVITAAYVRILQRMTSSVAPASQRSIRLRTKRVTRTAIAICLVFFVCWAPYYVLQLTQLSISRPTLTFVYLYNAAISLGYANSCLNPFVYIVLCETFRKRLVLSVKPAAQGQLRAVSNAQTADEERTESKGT
In short: as §1

Human Melanocortin (MC3) = molecular target: T10, Human Melanocortin (MC3) (Homo sapiens, UniProt P41968); experiment: Radioligand binding, human melanocortin MC3 membranes, FlashPlate, [125I]-NDP-αMSH; conditions: compound at 10 μM, [125I]-NDP-αMSH; for A3: inhibition of radioligand binding: human MC3 membranes
T10 construct: purchased Perkin Elmer Biosignal
T10 sequence (P41968 whole entry): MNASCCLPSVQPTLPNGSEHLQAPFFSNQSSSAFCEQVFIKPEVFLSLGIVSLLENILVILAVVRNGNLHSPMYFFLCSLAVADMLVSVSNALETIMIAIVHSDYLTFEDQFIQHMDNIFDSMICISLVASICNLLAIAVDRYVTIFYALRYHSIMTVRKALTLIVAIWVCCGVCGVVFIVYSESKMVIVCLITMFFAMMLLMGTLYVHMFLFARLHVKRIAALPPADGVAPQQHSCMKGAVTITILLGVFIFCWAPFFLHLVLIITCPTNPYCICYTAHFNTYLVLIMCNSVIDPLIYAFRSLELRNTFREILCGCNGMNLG
In short: as §1

Mouse urotensin (mUR2) = molecular target: T11, Mouse urotensin (mUR2) (Mus musculus, UniProt Q8VIH9); experiment: Radioligand binding, mouse urotensin mUR2 membranes, FlashPlate, [125I]-Urotensin II; conditions: compound at 10 μM, [125I]-Urotensin II; for A11: inhibition of radioligand binding: mouse mUR2 membranes
T11 construct: purchased Perkin Elmer Biosignal
T11 sequence (Q8VIH9 1-385): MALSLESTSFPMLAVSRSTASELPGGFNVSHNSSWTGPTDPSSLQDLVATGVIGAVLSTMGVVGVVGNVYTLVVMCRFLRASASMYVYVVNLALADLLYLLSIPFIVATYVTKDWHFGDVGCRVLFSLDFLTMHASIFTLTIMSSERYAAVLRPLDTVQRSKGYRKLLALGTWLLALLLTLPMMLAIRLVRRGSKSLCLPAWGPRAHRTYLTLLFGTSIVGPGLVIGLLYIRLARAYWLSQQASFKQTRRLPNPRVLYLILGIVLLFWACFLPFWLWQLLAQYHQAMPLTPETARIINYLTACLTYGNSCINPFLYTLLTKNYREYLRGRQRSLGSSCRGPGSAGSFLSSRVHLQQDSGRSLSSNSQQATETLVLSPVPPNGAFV
In short: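 Cloned mouse urotensin (mUR2) receptor membranes from Perkin Elmer Biosignal were immobilized in FlashPlate microplates using a proprietary coating. Each well got 19.5 μl buffer, then 0.5 μl of DMSO, reference ligand, or compound. Adding 5 μl of [125I]-Urotensin II, diluted to 5× final concentration in binding buffer, started binding. Plates were sealed with TopSeal-A and incubated 1 hour at room temperature in the dark. Wells were counted for 30 seconds each on a TopCount after a 60-second delay, and percentage inhibition was calculated.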

SMILES | A9 radioligand binding, percentage inhibition [1] | A1 radioligand binding, percentage inhibition (Human δ-opioid (DOP)) | A5 radioligand binding, percentage inhibition (Human melanocortin (MC5)) | A2 radioligand binding, percentage inhibition (Human κ-Opioid (KOP)) | A7 radioligand binding, percentage inhibition (Human μ-opioid (MOP)) | A8 radioligand binding, percentage inhibition (Human neurokinin (NK1)) | A4 radioligand binding, percentage inhibition (Human Melanocortin (MC4)) | A10 radioligand binding, percentage inhibition (Human opioid (ORL1)) | A6 radioligand binding, percentage inhibition ([2]; [125I]-S36057) | A3 radioligand binding, percentage inhibition (Human Melanocortin (MC3)) | A11 radioligand binding, percentage inhibition (Mouse urotensin (mUR2)) | A9: inhibition of radioligand binding [1] | A1: inhibition of radioligand binding (Human δ-opioid (DOP)) | A5: inhibition of radioligand binding (Human melanocortin (MC5)) | A2: inhibition of radioligand binding (Human κ-Opioid (KOP)) | A7: inhibition of radioligand binding (Human μ-opioid (MOP)) | A8: inhibition of radioligand binding (Human neurokinin (NK1)) | A4: inhibition of radioligand binding (Human Melanocortin (MC4)) | A10: inhibition of radioligand binding (Human opioid (ORL1)) | A6: inhibition of radioligand binding [2] | also measured
N=C(N)NCC(=O)NC1C(OCc2ccc(Cl)cc2)OC(COCc2ccc3ccccc3c2)C(O)C1OCc1ccc(Cl)cc1 (single isomer, unassigned) [compound 508] | – | – | – | – | – | – | – | – | – | – | – | – | – | – | – | – | – | – | – | – | A9: inhibition of radioligand binding, human neuropeptide Y (NPY-Y1) [1]: − (“−” indicates less than 50% inhibition at 10 μM); A1: inhibition of radioligand binding, human δ-opioid (DOP) (Human δ-opioid (DOP)): − (“−” indicates less than 50% inhibition at 10 μM); A5: inhibition of radioligand binding, human melanocortin (MC5) (Human melanocortin (MC5)): + (“+” indicates greater than 50% inhibition at 10 μM); A2: inhibition of radioligand binding, human κ-opioid (KOP) (Human κ-Opioid (KOP); 10 µM): + (“+” indicates greater than 50% inhibition at 10 μM); A7: inhibition of radioligand binding, human μ-opioid (MOP) (Human μ-opioid (MOP)): − (“−” indicates less than 50% inhibition at 10 μM); A8: inhibition of radioligand binding, human neurokinin (NK1) (Human neurokinin (NK1)): + (“+” indicates greater than 50% inhibition at 10 μM); A4: inhibition of radioligand binding, human melanocortin (MC4) (Human Melanocortin (MC4)): + (“+” indicates greater than 50% inhibition at 10 μM); A10: inhibition of radioligand binding, human opioid (ORL1) (Human opioid (ORL1)): + (“+” indicates greater than 50% inhibition at 10 μM); A6: inhibition of radioligand binding, human melanin-concentrating hormone (MCH1) ([2]; [125I]-S36057): + (“+” indicates greater than 50% inhibition at 10 μM); A3: inhibition of radioligand binding, human melanocortin (MC3) (Human Melanocortin (MC3); 10 µM): + (“+” indicates greater than 50% inhibition at 10 μM); A11: inhibition of radioligand binding, mouse urotensin (mUR2) (Mouse urotensin (mUR2)): − (“−” indicates less than 50% inhibition at 10 μM)
CO[C@H]1[C@H](O)[C@@H](COCc2ccc(Cl)cc2)OC(OCc2ccc(Cl)cc2)[C@@H]1NC(=O)CNC(=N)N (stereo partly shown) [compound 105] | − (“−” indicates less than 50% inhibition at 10 μM) | − (“−” indicates less than 50% inhibition at 10 μM) | + (“+” indicates greater than 50% inhibition at 10 μM) | − (“−” indicates less than 50% inhibition at 10 μM) | − (“−” indicates less than 50% inhibition at 10 μM) | + (“+” indicates greater than 50% inhibition at 10 μM) | + (“+” indicates greater than 50% inhibition at 10 μM) | − (“−” indicates less than 50% inhibition at 10 μM) | − (“−” indicates less than 50% inhibition at 10 μM) | − (“−” indicates less than 50% inhibition at 10 μM) | − (“−” indicates less than 50% inhibition at 10 μM) | – | – | – | – | – | – | – | – | – | –
N=C(N)NCC(=O)NC1C(OCc2ccc(-c3ccccc3)cc2)OC(COCc2ccc3ccccc3c2)C(O)C1OCc1ccc2ccccc2c1 (stereo not shown) [compound 402] | – | – | – | – | – | – | – | – | – | – | – | − (“−” indicates less than 50% inhibition at 10 μM) | − (“−” indicates less than 50% inhibition at 10 μM) | + (“+” indicates greater than 50% inhibition at 10 μM) | − (“−” indicates less than 50% inhibition at 10 μM) | − (“−” indicates less than 50% inhibition at 10 μM) | + (“+” indicates greater than 50% inhibition at 10 μM) | + (“+” indicates greater than 50% inhibition at 10 μM) | + (“+” indicates greater than 50% inhibition at 10 μM) | + (“+” indicates greater than 50% inhibition at 10 μM) | A3: inhibition of radioligand binding (Human Melanocortin (MC3)): + (“+” indicates greater than 50% inhibition at 10 μM); A11: inhibition of radioligand binding (Mouse urotensin (mUR2)): − (“−” indicates less than 50% inhibition at 10 μM)
COC[C@H]1OC(OCc2ccc3ccccc3c2)[C@H](NC(=O)CNC(=N)N)[C@@H](OCc2cccc(O)c2)[C@@H]1O (stereo partly shown) [compound 133] | − (“−” indicates less than 50% inhibition at 10 μM) | − (“−” indicates less than 50% inhibition at 10 μM) | − (“−” indicates less than 50% inhibition at 10 μM) | − (“−” indicates less than 50% inhibition at 10 μM) | + (“+” indicates greater than 50% inhibition at 10 μM) | − (“−” indicates less than 50% inhibition at 10 μM) | − (“−” indicates less than 50% inhibition at 10 μM) | − (“−” indicates less than 50% inhibition at 10 μM) | − (“−” indicates less than 50% inhibition at 10 μM) | − (“−” indicates less than 50% inhibition at 10 μM) | − (“−” indicates less than 50% inhibition at 10 μM) | – | – | – | – | – | – | – | – | – | –
NCCC(=O)NC1C(OCc2ccc3ccccc3c2)OC(COCc2ccccc2)C(O)C1OCc1ccc(Cl)cc1 (stereo not shown) [compound 382] | – | – | – | – | – | – | – | – | – | – | – | − (“−” indicates less than 50% inhibition at 10 μM) | − (“−” indicates less than 50% inhibition at 10 μM) | + (“+” indicates greater than 50% inhibition at 10 μM) | − (“−” indicates less than 50% inhibition at 10 μM) | − (“−” indicates less than 50% inhibition at 10 μM) | + (“+” indicates greater than 50% inhibition at 10 μM) | + (“+” indicates greater than 50% inhibition at 10 μM) | − (“−” indicates less than 50% inhibition at 10 μM) | − (“−” indicates less than 50% inhibition at 10 μM) | A3: inhibition of radioligand binding (Human Melanocortin (MC3)): − (“−” indicates less than 50% inhibition at 10 μM); A11: inhibition of radioligand binding (Mouse urotensin (mUR2)): − (“−” indicates less than 50% inhibition at 10 μM)
